Measurements as given in ChEMBL document CHEMBL1129627, “Nonlinear quantitative structure-activity relationship for the inhibition of dihydrofolate reductase by pyrimidines” (J Med Chem, 1996).
pKi: −log10 of the molar value.

Target: T1, Dihydrofolate reductase (Escherichia coli, UniProt P0ABQ4)
T1 sequence (P0ABQ4 whole entry): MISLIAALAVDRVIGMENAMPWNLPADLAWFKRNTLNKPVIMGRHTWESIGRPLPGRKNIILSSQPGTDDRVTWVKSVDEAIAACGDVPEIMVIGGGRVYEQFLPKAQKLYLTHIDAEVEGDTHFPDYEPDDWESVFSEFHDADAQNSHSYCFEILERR
Description: Negative logarithm of inhibition constant (-log Ki) against Dihydrofolate reductase in Escherichia coli

pKi	Compound
6.92	CS(=O)(=O)Oc1cccc(CC2CN=C(N)N=C2N)c1 (stereo unspecified)
6.45	NC1=NCC(Cc2ccc(O)cc2)C(N)=N1 (stereo unspecified)
8.87	Cc1cc(CC2CN=C(N)N=C2N)cc(Cl)c1N (stereo unspecified)
8.35	COCCc1c(OC)cc(CC2CN=C(N)N=C2N)cc1OC (stereo unspecified)
8.82	NC1=NCC(Cc2cc(I)c(O)c(I)c2)C(N)=N1 (stereo unspecified)
7.20	COCCCCCCCOc1c(OC)cc(CC2CN=C(N)N=C2N)cc1OC (stereo unspecified)
7.82	CCc1cc(CC2CN=C(N)N=C2N)cc(CC)c1CC (stereo unspecified)
7.80	COc1ccc(CC2CN=C(N)N=C2N)cc1OS(C)(=O)=O (stereo unspecified)
6.60	CS(=O)(=O)Oc1ccc(CC2CN=C(N)N=C2N)cc1 (stereo unspecified)
7.22	COCCC(=O)c1ccc(CC2CN=C(N)N=C2N)cc1C(=O)CCOC (stereo unspecified)
7.87	CCCCCCCCOc1c(OC)cc(CC2CN=C(N)N=C2N)cc1OC (stereo unspecified)
7.56	Cc1cc(CC2CN=C(N)N=C2N)cc(C)c1O (stereo unspecified)
8.85	NC1=NCC(Cc2cc(Br)c(N)c(Br)c2)C(N)=N1 (stereo unspecified)
6.20	NC1=NCC(Cc2ccc([N+](=O)[O-])cc2)C(N)=N1 (stereo unspecified)
8.42	COc1cc(CC2CN=C(N)N=C2N)cc(OC)c1OCc1ccccc1 (stereo unspecified)
8.87	NC1=NCC(Cc2cc(Cl)c(N)c(Cl)c2)C(N)=N1 (stereo unspecified)
7.77	COCCOc1ccc(CC2CN=C(N)N=C2N)cc1OC (stereo unspecified)

pKi	Compound
7.41	CCCOc1cc(CC2CN=C(N)N=C2N)cc(OCCC)c1 (stereo unspecified)
6.89	NC1=NCC(Cc2ccc(OCc3ccccc3)cc2)C(N)=N1 (stereo unspecified)
7.69	COc1ccc(CC2CN=C(N)N=C2N)cc1C(F)(F)F (stereo unspecified)
6.84	COc1ccc(CC2CN=C(N)N=C2N)cc1O (stereo unspecified)
8.57	COc1cc(CC2CN=C(N)N=C2N)cc(OC)c1C (stereo unspecified)
6.97	CC(=O)Nc1ccc(CC2CN=C(N)N=C2N)cc1[N+](=O)[O-] (stereo unspecified)
7.94	COc1cc(CC2CN=C(N)N=C2N)ccc1OS(C)(=O)=O (stereo unspecified)
6.86	CCCCCCOc1cccc(CC2CN=C(N)N=C2N)c1 (stereo unspecified)
8.82	COc1c(I)cc(CC2CN=C(N)N=C2N)cc1I (stereo unspecified)
6.57	NC1=NCC(Cc2ccc(OC(F)(F)F)cc2)C(N)=N1 (stereo unspecified)
7.16	COCCCCCCCOc1cc(CC2CN=C(N)N=C2N)ccc1OC (stereo unspecified)
7.74	COc1c(C)cc(CC2CN=C(N)N=C2N)cc1C (stereo unspecified)
7.04	Cc1cc(C)cc(CC2CN=C(N)N=C2N)c1 (stereo unspecified)
8.18	COc1cc(CC2CN=C(N)N=C2N)cc(OC)c1Br (stereo unspecified)
7.54	COc1cc(CC2CN=C(N)N=C2N)ccc1O (stereo unspecified)
7.87	CCCCCCOc1c(OC)cc(CC2CN=C(N)N=C2N)cc1OC (stereo unspecified)

Compound	pKi
COc1cc(CC2CN=C(N)N=C2N)ccc1Cc1ccccc1 (stereo unspecified)	7.53
COc1ccc(CC2CN=C(N)N=C2N)cc1OCc1ccccc1 (stereo unspecified)	7.66
NC1=NCC(Cc2ccc3c(c2)OCCO3)C(N)=N1 (stereo unspecified)	7.13
